Test results taken from ChEMBL document CHEMBL1949655, “Neomycin-phenolic conjugates: polycationic amphiphiles with broad-spectrum antibacterial activity, low hemolytic activity and weak serum protein binding” (Bioorg Med Chem Lett, 2012).
In brackets after ≈: the same amount, converted by molar mass.

Assays:
Staphylococcus aureus [1] = experiment: microbe, parasite or virus in culture; assay type: functional; conditions: ATCC 29213, 24 h
Description: Antibacterial activity against Staphylococcus aureus ATCC 29213 after 24 hrs by macrobroth dilution method

Staphylococcus aureus [2] = experiment: microbe, parasite or virus in culture; assay type: functional; conditions: ATCC 33592, 24 h
Description: Antibacterial activity against methicillin-resistant Staphylococcus aureus ATCC 33592 after 24 hrs by macrobroth dilution method

[3] = test system: Staphylococcus epidermidis; experiment: microbe, parasite or virus in culture; assay type: functional; conditions: Staphylococcus epidermidis, 81388, 24 h
Description: Antibacterial activity against methicillin-susceptible Staphylococcus epidermidis 81388 after 24 hrs by macrobroth dilution method

[4] = test system: Staphylococcus epidermidis; experiment: microbe, parasite or virus in culture; assay type: functional; conditions: isolate CAN-ICU61589, 24 h
Description: Antibacterial activity against methicillin-resistant Staphylococcus epidermidis isolate CAN-ICU 61589 after 24 hrs by macrobroth dilution method

Enterococcus faecalis [5] = experiment: microbe, parasite or virus in culture; assay type: functional; conditions: ATCC 29212, 24 h
Description: Antibacterial activity against Enterococcus faecalis ATCC 29212 after 24 hrs by macrobroth dilution method

Enterococcus faecium [6] = experiment: microbe, parasite or virus in culture; assay type: functional; conditions: ATCC 27270, 24 h
Description: Antibacterial activity against Enterococcus faecium ATCC 27270 after 24 hrs by macrobroth dilution method

Streptococcus pneumoniae [7] = experiment: microbe, parasite or virus in culture; assay type: functional; conditions: ATCC 49619, 24 h
Description: Antibacterial activity against Streptococcus pneumoniae ATCC 49619 after 24 hrs by macrobroth dilution method

Escherichia coli [8] = experiment: microbe, parasite or virus in culture; assay type: functional; conditions: ATCC 25922, 24 h
Description: Antibacterial activity against Escherichia coli ATCC 25922 after 24 hrs by macrobroth dilution method

Escherichia coli [9] = experiment: microbe, parasite or virus in culture; assay type: functional; conditions: isolate CAN-ICU 61714, 24 h
Description: Antibacterial activity against Escherichia coli isolate CAN-ICU 61714 after 24 hrs by macrobroth dilution method

Escherichia coli [10] = experiment: microbe, parasite or virus in culture; assay type: functional; conditions: isolate CAN-ICU 63074, 24 h
Description: Antibacterial activity against Escherichia coli isolate CAN-ICU 63074 after 24 hrs by macrobroth dilution method

Pseudomonas aeruginosa [11] = experiment: microbe, parasite or virus in culture; assay type: functional; conditions: ATCC 27853, 24 h
Description: Antibacterial activity against Pseudomonas aeruginosa ATCC 27853 after 24 hrs by macrobroth dilution method

Pseudomonas aeruginosa [12] = experiment: microbe, parasite or virus in culture; assay type: functional; conditions: isolate CAN-ICU 62308, 24 h
Description: Antibacterial activity against Pseudomonas aeruginosa isolate CAN-ICU 62308 after 24 hrs by macrobroth dilution method

[13] = test system: Stenotrophomonas maltophilia; experiment: microbe, parasite or virus in culture; assay type: functional; conditions: isolate CAN-ICU 62584, 24 h
Description: Antibacterial activity against Stenotrophomonas maltophilia isolate CAN-ICU 62584 after 24 hrs by macrobroth dilution method

Acinetobacter baumannii [14] = experiment: microbe, parasite or virus in culture; assay type: functional; conditions: isolate CAN-ICU 63169, 24 h
Description: Antibacterial activity against Acinetobacter baumannii 63169 isolate CAN-ICU after 24 hrs by macrobroth dilution method

Klebsiella pneumoniae [15] = experiment: microbe, parasite or virus in culture; assay type: functional; conditions: ATCC 13883, 24 h
Description: Antibacterial activity against Klebsiella pneumoniae ATCC 13883 after 24 hrs by macrobroth dilution method

Staphylococcus aureus [16] = experiment: microbe, parasite or virus in culture; assay type: functional; conditions: ATCC 29213, 24 h; remark: listed apart in the source
Description: Antibacterial activity against Staphylococcus aureus ATCC 29213 after 24 hrs by macrobroth dilution method in the presence of bovine serum albumin

Staphylococcus aureus [17] = experiment: microbe, parasite or virus in culture; assay type: functional; conditions: ATCC 33592, 24 h; remark: listed apart in the source
Description: Antibacterial activity against methicillin-resistant Staphylococcus aureus ATCC 33592 after 24 hrs by macrobroth dilution method in the presence of bovine serum albumin

[18] = test system: Staphylococcus epidermidis; experiment: microbe, parasite or virus in culture; assay type: functional; conditions: Staphylococcus epidermidis, 81388, 24 h; remark: listed apart in the source
Description: Antibacterial activity against methicillin-susceptible Staphylococcus epidermidis 81388 after 24 hrs by macrobroth dilution method in the presence of bovine serum albumin

[19] = test system: Staphylococcus epidermidis; experiment: microbe, parasite or virus in culture; assay type: functional, isolate CAN-ICU 61589; conditions: isolate CAN-ICU61589, 24 h
Description: Antibacterial activity against methicillin-resistant Staphylococcus epidermidis isolate CAN-ICU 61589 after 24 hrs by macrobroth dilution method in the presence of bovine serum albumin

Enterococcus faecalis [20] = experiment: microbe, parasite or virus in culture; assay type: functional; conditions: ATCC 29212, 24 h; remark: listed apart in the source
Description: Antibacterial activity against Enterococcus faecalis ATCC 29212 after 24 hrs by macrobroth dilution method in the presence of bovine serum albumin

Enterococcus faecium [21] = experiment: microbe, parasite or virus in culture; assay type: functional; conditions: ATCC 27270, 24 h; remark: listed apart in the source
Description: Antibacterial activity against Enterococcus faecium ATCC 27270 after 24 hrs by macrobroth dilution method in the presence of bovine serum albumin

Streptococcus pneumoniae [22] = experiment: microbe, parasite or virus in culture; assay type: functional; conditions: ATCC 49619, 24 h; remark: listed apart in the source
Description: Antibacterial activity against Streptococcus pneumoniae ATCC 49619 after 24 hrs by macrobroth dilution method in the presence of bovine serum albumin

Escherichia coli [23] = experiment: microbe, parasite or virus in culture; assay type: functional; conditions: ATCC 25922, 24 h; remark: listed apart in the source
Description: Antibacterial activity against Escherichia coli ATCC 25922 after 24 hrs by macrobroth dilution method in the presence of bovine serum albumin

Escherichia coli [24] = experiment: microbe, parasite or virus in culture; assay type: functional; conditions: isolate CAN-ICU 61714, 24 h; remark: listed apart in the source
Description: Antibacterial activity against Escherichia coli isolate CAN-ICU 61714 after 24 hrs by macrobroth dilution method in the presence of bovine serum albumin

Escherichia coli [25] = experiment: microbe, parasite or virus in culture; assay type: functional; conditions: isolate CAN-ICU 63074, 24 h; remark: listed apart in the source
Description: Antibacterial activity against Escherichia coli isolate CAN-ICU 63074 after 24 hrs by macrobroth dilution method in the presence of bovine serum albumin

Pseudomonas aeruginosa [26] = experiment: microbe, parasite or virus in culture; assay type: functional; conditions: ATCC 27853, 24 h; remark: listed apart in the source
Description: Antibacterial activity against Pseudomonas aeruginosa ATCC 27853 after 24 hrs by macrobroth dilution method in the presence of bovine serum albumin

Pseudomonas aeruginosa [27] = experiment: microbe, parasite or virus in culture; assay type: functional; conditions: isolate CAN-ICU 62308, 24 h; remark: listed apart in the source
Description: Antibacterial activity against Pseudomonas aeruginosa isolate CAN-ICU 62308 after 24 hrs by macrobroth dilution method in the presence of bovine serum albumin

[28] = test system: Stenotrophomonas maltophilia; experiment: microbe, parasite or virus in culture; assay type: functional; conditions: isolate CAN-ICU 62584, 24 h; remark: listed apart in the source
Description: Antibacterial activity against Stenotrophomonas maltophilia isolate CAN-ICU 62584 after 24 hrs by macrobroth dilution method in the presence of bovine serum albumin

Acinetobacter baumannii [29] = experiment: microbe, parasite or virus in culture; assay type: functional; conditions: isolate CAN-ICU 63169, 24 h; remark: listed apart in the source
Description: Antibacterial activity against Acinetobacter baumannii isolate CAN-ICU 63169 after 24 hrs by macrobroth dilution method in the presence of bovine serum albumin

Klebsiella pneumoniae [30] = experiment: microbe, parasite or virus in culture; assay type: functional; conditions: ATCC 13883, 24 h; remark: listed apart in the source
Description: Antibacterial activity against Klebsiella pneumoniae ATCC 13883 after 24 hrs by macrobroth dilution method in the presence of bovine serum albumin

[31] = Toxicity in human erythrocytes assessed as hemolysis at 100 ug/ml by spectrophotometry; conditions: at 100 µg/mL
Pseudomonas aeruginosa [32] = experiment: Ratio of MIC90 of neomycin sulfate to MIC90 of compound against Pseudomonas aeruginosa ATCC 27853; assay type: functional
Pseudomonas aeruginosa [33] = experiment: Ratio of MIC90 of neomycin sulfate to MIC90 of compound against Pseudomonas aeruginosa 62308; assay type: functional
[34] = Aqueous solubility of the compound; assay type: physicochemical; conditions: buffer

Row | Structure (SMILES) | MIC90 (Staphylococcus aureus [1]) | MIC90 (Staphylococcus aureus [2]) | MIC90 [3] | MIC90 [4] | MIC90 (Enterococcus faecalis [5]) | MIC90 (Enterococcus faecium [6]) | MIC90 (Streptococcus pneumoniae [7]) | MIC90 (Escherichia coli [8]) | MIC90 (Escherichia coli [9]) | MIC90 (Escherichia coli [10]) | MIC90 (Pseudomonas aeruginosa [11]) | MIC90 (Pseudomonas aeruginosa [12]) | MIC90 [13] | MIC90 (Acinetobacter baumannii [14]) | MIC90 (Klebsiella pneumoniae [15]) | MIC90 (Staphylococcus aureus [16]) | MIC90 (Staphylococcus aureus [17]) | MIC90 [18] | MIC90 [19] | MIC90 (Enterococcus faecalis [20]) | other results
1 | Cc1cc(O)cc(C)c1Cl [CHLOROXYLENOL] | 32 µg/mL (≈ 204 µM) | 64 µg/mL (≈ 409 µM) | 32 µg/mL (≈ 204 µM) | 16 µg/mL (≈ 102 µM) | 256 µg/mL (≈ 1630 µM) | 256 µg/mL (≈ 1630 µM) | 128 µg/mL (≈ 817 µM) | 256 µg/mL (≈ 1630 µM) | 256 µg/mL (≈ 1630 µM) | 256 µg/mL (≈ 1630 µM) | 512 µg/mL (≈ 3270 µM) | 256 µg/mL (≈ 1630 µM) | 128 µg/mL (≈ 817 µM) | 128 µg/mL (≈ 817 µM) | 256 µg/mL (≈ 1630 µM) | 512 µg/mL (≈ 3270 µM) | 512 µg/mL (≈ 3270 µM) | 512 µg/mL (≈ 3270 µM) | 512 µg/mL (≈ 3270 µM) | > 512 µg/mL | MIC90 (Enterococcus faecium [21]): > 512 µg/mL; MIC90 (Streptococcus pneumoniae [22]): > 512 µg/mL; MIC90 (Escherichia coli [23]): > 512 µg/mL; MIC90 (Escherichia coli [24]): > 512 µg/mL; MIC90 (Escherichia coli [25]): > 512 µg/mL; MIC90 (Pseudomonas aeruginosa [26]): > 512 µg/mL; MIC90 (Pseudomonas aeruginosa [27]): > 512 µg/mL; MIC90 [28]: > 512 µg/mL; MIC90 (Acinetobacter baumannii [29]): > 512 µg/mL; MIC90 (Klebsiella pneumoniae [30]): > 512 µg/mL
2 | CC(C)(C)CC(C)(C)c1ccc(OCCCCc2cn(C[C@H]3O[C@@H](O[C@@H]4[C@@H](O)[C@H](N)C[C@H](N)[C@H]4O[C@H]4O[C@H](CN)[C@@H](O)[C@H](O)[C@H]4N)[C@H](O)[C@@H]3O[C@H]3O[C@@H](CN)[C@@H](O)[C@H](O)[C@H]3N)nn2)c(Cc2ccc(Cl)cc2Cl)c1 | 16 µg/mL (≈ 14.7 µM) | 16 µg/mL (≈ 14.7 µM) | 8 µg/mL (≈ 7.37 µM) | 8 µg/mL (≈ 7.37 µM) | 64 µg/mL (≈ 59 µM) | 8 µg/mL (≈ 7.37 µM) | 64 µg/mL (≈ 59 µM) | 64 µg/mL (≈ 59 µM) | 64 µg/mL (≈ 59 µM) | 128 µg/mL (≈ 118 µM) | 128 µg/mL (≈ 118 µM) | 64 µg/mL (≈ 59 µM) | 512 µg/mL (≈ 472 µM) | 256 µg/mL (≈ 236 µM) | 32 µg/mL (≈ 29.5 µM) | 16 µg/mL (≈ 14.7 µM) | 32 µg/mL (≈ 29.5 µM) | 4 µg/mL (≈ 3.69 µM) | 4 µg/mL (≈ 3.69 µM) | 64 µg/mL (≈ 59 µM) | MIC90 (Enterococcus faecium [21]): 16 µg/mL (≈ 14.7 µM); MIC90 (Streptococcus pneumoniae [22]): 64 µg/mL (≈ 59 µM); MIC90 (Escherichia coli [23]): 64 µg/mL (≈ 59 µM); MIC90 (Escherichia coli [24]): 128 µg/mL (≈ 118 µM); MIC90 (Escherichia coli [25]): 256 µg/mL (≈ 236 µM); MIC90 (Pseudomonas aeruginosa [26]): 512 µg/mL (≈ 472 µM); MIC90 (Pseudomonas aeruginosa [27]): 256 µg/mL (≈ 236 µM); MIC90 [28]: > 512 µg/mL; MIC90 (Acinetobacter baumannii [29]): > 512 µg/mL; MIC90 (Klebsiella pneumoniae [30]): 32 µg/mL (≈ 29.5 µM); hemolysis at 100 ug/ml [31]: 22.5%; Ratio (Pseudomonas aeruginosa [32]): 4; Ratio (Pseudomonas aeruginosa [33]): 4
3 | CC(C)(C)CC(C)(C)c1ccc(O)c(Cc2ccc(Cl)cc2Cl)c1 [CLOFOCTOL] |  |  |  |  |  |  |  |  |  |  |  |  |  |  |  |  |  |  |  |  | solubility [34]: Insoluble
4 | Cc1cc(OCc2cn(C[C@H]3O[C@@H](O[C@@H]4[C@@H](O)[C@H](N)C[C@H](N)[C@H]4O[C@H]4O[C@H](CN)[C@@H](O)[C@H](O)[C@H]4N)[C@H](O)[C@@H]3O[C@H]3O[C@@H](CN)[C@@H](O)[C@H](O)[C@H]3N)nn2)cc(C)c1Cl | 16 µg/mL (≈ 19.2 µM) | 256 µg/mL (≈ 307 µM) | 8 µg/mL (≈ 9.59 µM) | 8 µg/mL (≈ 9.59 µM) | 64 µg/mL (≈ 76.7 µM) | 128 µg/mL (≈ 153 µM) | 64 µg/mL (≈ 76.7 µM) | 16 µg/mL (≈ 19.2 µM) | 16 µg/mL (≈ 19.2 µM) | 128 µg/mL (≈ 153 µM) | 512 µg/mL (≈ 614 µM) | 256 µg/mL (≈ 307 µM) | > 512 µg/mL | > 512 µg/mL | 8 µg/mL (≈ 9.59 µM) | 32 µg/mL (≈ 38.4 µM) | 512 µg/mL (≈ 614 µM) | 8 µg/mL (≈ 9.59 µM) | 8 µg/mL (≈ 9.59 µM) | 128 µg/mL (≈ 153 µM) | MIC90 (Enterococcus faecium [21]): 64 µg/mL (≈ 76.7 µM); MIC90 (Streptococcus pneumoniae [22]): 128 µg/mL (≈ 153 µM); MIC90 (Escherichia coli [23]): 32 µg/mL (≈ 38.4 µM); MIC90 (Escherichia coli [24]): 16 µg/mL (≈ 19.2 µM); MIC90 (Escherichia coli [25]): 128 µg/mL (≈ 153 µM); MIC90 (Pseudomonas aeruginosa [26]): 512 µg/mL (≈ 614 µM); MIC90 (Pseudomonas aeruginosa [27]): 256 µg/mL (≈ 307 µM); MIC90 [28]: > 512 µg/mL; MIC90 (Acinetobacter baumannii [29]): > 512 µg/mL; MIC90 (Klebsiella pneumoniae [30]): 4 µg/mL (≈ 4.79 µM); hemolysis at 100 ug/ml [31]: 0.75%
